Experimental findings from patent publication US11993591B2, “Chromen-4-one derivatives for the treatment and prophylaxis of hepatitis B virus disease” (Hoffmann-La Roche Inc., priority 2018, dated 2024) are described below.

The structures appear in SMILES notation.

The test system of the assay is HBV cccDNA (HBeAg level) in HepDES19 cells. Kind of assay: Engineered HepDES19 primary screen assay (HBeAg as surrogate marker for cccDNA). Format: cell-based. The note with it: Hepatitis B virus, HepDES19, 120 h. The text has this: The assay was employed to screen for novel cccDNA inhibitors. HepDES19 is a cccDNA-producing cell line. In this cell line, HBeAg in the cell culture supernatant as surrogate marker, as HBeAg production depends on cccDNA level and activity. HepDES19 is an engineered cell line which contains a 1.1 unit length HBV genome, and pgRNA transcription from the transgene is controlled by Tetracycline (Tet). In the absence of Tet, pgRNA transcription will be induced, but HBV e antigen (HBeAg) could not be produced from this pgRNA due to very short leader sequence before the HBeAg start codon and the start codon is disrupted. Only after cccDNA is formed, the missing leader sequence and start codon mutation would be restored from the 3′-terminal redundancy of pgRNA, and then HBeAg could be synthesized. Therefore, HBeAg could be used as a surrogate marker for cccDNA (Zhou, T. et al., Antiviral Res. (2006), 72(2), 116-124; Guo, H. et al., J. Virol. (2007), 81(22), 12472-12484).
HepDES19 cells were seeded at 2×10^6 cells per T150 flask and cultured with the culture medium (Dulbecco's Modified Eagle Medium: Nutrient Mixture F-12 [DMEM-F12, Gibco Cat. 11320-82], 10% Fetal Bovine Serum [FBS, Clontech Cat. 631101], 0.1 mM Non-Essential Amino Acids Solution [NEAA, Gibco Cat. 11140-050], 50 μg/mL Penicillin-Streptomycin [PS, Invitrogen Cat. 15140-163], 500 μg/mL Geneticin [G418, Invitrogen Cat. 10131-027]) containing 3 μg/mL Tet (Sigma, Cat. 87128) for 5 days. Cells were then seeded at 4×10^6 cells per T150 in the same culture medium as described above in the absence of Tet for 8 days. Cells were then harvested and frozen at density of 2×10^6 cells per mL. For compound testing, the frozen cells were thawed and seeded into 96-well plates at a density of 6×10^4 cells per well. At 24 hours after seeding, half log serial dilutions of compounds made with Dimethyl sulfoxide (DMSO, Sigma, Cat. D2650) were further diluted with the same culture medium as described above before they were added to the cells to reach desired final compound concentrations and 1% DMSO concentration. Plates were then incubated at 37° C. for another 5 days before measurement of HBeAg level and cell viability. Intracellular HBeAg level were measured with enzyme-linked immunosorbent assay (ELISA) kit (Shanghai Kehua Diagnostic Medical Products Co., Ltd). Cell viability was assessed using Cell Counting Kit-8 (Donjindo, Cat. CK04-20). IC50 values were derived from the dose-response curve using 4 parameter logistic curve fit method.
The compounds of the present invention were tested for their capacity to inhibit extracellular HBeAg level as described herein.
`COC(=O)c1ccc(C)c(NC(=O)c2cc(=O)c3cccc(Cl)c3o2)c1` [Example 21, Methyl 3-(8-chloro-4-oxo-chromene-2-carboxamido)-4-methylbenzoate] returned an IC50 of 11 µM. This lies in the double-digit micromolar range.
Consider `COc1ccc2c(c1)C(=O)N(c1cc(=O)c3cccc(Cl)c3o1)CC2` [Example 65, 2-(8-chloro-4-oxo-chromen-2-yl)-7-methoxy-3,4-dihydroisoquinolin-1-one], for which half-maximal inhibition (IC50) required 37.6 µM.
Consider `COc1ccc(CNc2oc3c(Cl)cccc3c(=O)c2I)cc1` [Example 42, 8-chloro-3-iodo-2-((4-methoxybenzyl)amino)-chromen-4-one], for which the 50% inhibitory concentration (IC50) was 4.34 µM.
`CC1c2ccc(O)cc2CCN1c1cc(=O)c2cccc(Cl)c2o1` (centres unmarked) [Example 57, 8-chloro-2-(6-hydroxy-1-methyl-3,4-dihydro-1H-isoquinolin-2-yl)chromen-4-one]: 20 µM corresponded to half-maximal inhibition (IC50).
`O=C(c1cc(=O)c2cccc(Cl)c2o1)N1CCCc2ccc([N+](=O)[O-])cc21` [Example 33, 8-chloro-2-(7-nitro-3,4-dihydro-2H-quinoline-1-carbonyl)chromen-4-one]: the half-maximal inhibitory concentration (IC50) came out at 35.3 µM.
For `COC(=O)c1cccc(N2CCN(c3cc(=O)c4cccc(Cl)c4o3)CC2)c1` [Example 53, Methyl 3-(4-(8-chloro-4-oxo-chromen-2-yl)piperazin-1-yl)benzoate] the value was 15 µM; for `O=C(Nc1ccc(Cl)cc1OCCOC1CC(C(=O)O)C1)c1cc(=O)c2cccc(Cl)c2o1` (centres unmarked) [Example 34, 3-(2-(5-chloro-2-(8-chloro-4-oxo-chromene-2-carboxamido)phenoxy)ethoxy)cyclobutane-1-carboxylic Acid], 44.6 µM.
Consider `O=C(c1cc(=O)c2cccc(Cl)c2o1)N1Cc2cccc(Br)c2C1` [Example 31, 2-(4-bromoisoindoline-2-carbonyl)-8-chloro-chromen-4-one], for which the IC50 was 26.8 µM.
The value for `O=c1cc(N2C3CCC2CC(O)C3)oc2c(Cl)cccc12` (centres unmarked) [Example 51, 8-chloro-2-(3-hydroxy-8-azabicyclo[3.2.1]octan-8-yl)-chromen-4-one] was 14.8 µM; that for `O=c1cc(-n2ccc(OCc3ccccc3)cc2=O)oc2c(Cl)cccc12` [Example 59, 4-(benzyloxy)-1-(8-chloro-4-oxo-chromen-2-yl)pyridin-2(1H)-one] was 24.4 µM; that for `COc1ccc(CN(C)c2cc(=O)c3cccc(Cl)c3o2)cc1` [Example 48, 8-chloro-2-((4-methoxybenzyl)(methyl)amino)-chromen-4-one] was 12.1 µM.
`Cc1cc(O)ccc1NC(=O)c1cc(=O)c2cccc(Cl)c2o1` [Example 30, 8-chloro-N-(4-hydroxy-2-methylphenyl)-4-oxo-chromene-2-carboxamide] yielded an IC50 of 25.9 µM. This IC50 is about 2.1-fold higher than that of the compound before.
`COC(=O)c1cc(Cl)ccc1NC(=O)c1cc(=O)c2cccc(Cl)c2o1` [Example 25, Methyl 5-chloro-2-(8-chloro-4-oxo-chromene-2-carboxamido)benzoate] yielded an IC50 of 16.2 µM.
Consider `O=c1cc(N2CC3(CC(O)C3)C2)oc2c(Cl)cccc12` [Example 47, 8-chloro-2-(6-hydroxy-2-azaspiro[3.3]heptan-2-yl)chromen-4-one], for which the IC50 stood at 10.7 µM.
`CN(Cc1ccc(OCCOC2CC(C(=O)O)C2)cc1)c1cc(=O)c2cccc(Cl)c2o1` (centres unmarked) [Example 56, 3-(2-(4-(((8-chloro-4-oxo-chromen-2-yl)(methyl)amino)methyl)phenoxy)ethoxy)cyclobutanecarboxylic acid] yielded a half-inhibitory concentration (IC50) of 19.6 µM.
`COC(=O)C1CC(OCCOc2ccc3c(c2)C(=O)N(c2cc(=O)c4cccc(Cl)c4o2)C3)C1` (centres unmarked) [Example 54, Methyl 3-(2-((2-(8-chloro-4-oxo-chromen-2-yl)-3-oxoisoindolin-5-yl)oxy)ethoxy)cyclobutanecarboxylate] yielded an IC50 of 16 µM.
The value for `COC(=O)c1cccc(C(=O)N2CC3(C2)CN(c2cc(=O)c4cccc(Cl)c4o2)C3)c1` [Example 63, Methyl 3-[6-(8-chloro-4-oxo-chromen-2-yl)-2,6-diazaspiro[3.3]heptane-2-carbonyl]benzoate] was 31.7 µM.
The compound `O=c1cc(N2CCN(c3ccccc3)CC2)oc2c(Cl)cc(F)cc12` [Example 45, 8-chloro-6-fluoro-2-(4-phenylpiperazin-1-yl)-chromen-4-one] yielded an IC50 of 8.58 µM.
`Cc1cc(Cl)ccc1NC(=O)c1cc(=O)c2cccc(Cl)c2o1` [Example 8, 8-chloro-N-(4-chloro-2-methylphenyl)-4-oxo-chromene-2-carboxamide] showed a 50% inhibitory concentration (IC50) of 0.32 µM.
`CC(C)(C)OC(=O)N1CC2(C1)CN(c1cc(=O)c3cccc(Cl)c3o1)C2` [Example 62, Tert-butyl 6-(8-chloro-4-oxo-chromen-2-yl)-2,6-diazaspiro[3.3]heptane-2-carboxylate]: the half-inhibitory concentration (IC50) came to 33.2 µM.
On to `COC(=O)c1cccc(COC2CC3CCC(C2)N3c2cc(=O)c3cccc(Cl)c3o2)c1` (centres unmarked) [Example 41, Methyl 3-(((8-(8-chloro-4-oxo-chromen-2-yl)-8-azabicyclo[3.2.1]octan-3-yl)oxy)methyl)benzoate], for which the IC50 worked out at 3.99 µM.
As for `COC(=O)c1ccc(CNC(=O)c2cc(=O)c3cccc(Cl)c3o2)cc1` [Example 26, Methyl 4-((8-chloro-4-oxo-chromene-2-carboxamido)methyl)benzoate], 20.6 µM corresponded to half-maximal inhibition (IC50). This IC50 is about 5.2-fold higher than that of the compound before.
For `COC(=O)c1ccc(NC(=O)c2cc(=O)c3cccc(Cl)c3o2)c(C)c1` [Example 27, Methyl 4-(8-chloro-4-oxo-chromene-2-carboxamido)-3-methylbenzoate] the value was 23.4 µM.
In turn, `COc1ccc(CNc2cc(=O)c3cccc(Cl)c3o2)cc1` [Example 52, 8-chloro-2-((4-methoxybenzyl)amino)-chromen-4-one] yielded an IC50 of 15 µM.
In turn, `O=c1c(I)c(N2CCC(O)CC2)oc2c(Cl)cccc12` [Example 61, 8-chloro-2-(4-hydroxypiperidin-1-yl)-3-iodo-chromen-4-one] displayed an IC50 of 30.9 µM. This IC50 is about 2.1-fold higher than that of the compound before.
For `O=C(O)COCCOc1cc(Cl)ccc1NC(=O)c1cc(=O)c2cc(Cl)cc(Cl)c2o1` [Example 22, 2-(2-(5-chloro-2-(6,8-dichloro-4-oxo-chromene-2-carboxamido)phenoxy)ethoxy)acetic Acid], 11.9 µM corresponded to half-maximal inhibition (IC50).
For `O=C(O)C1CC(OCCOc2ccc3c(c2)CN(c2cc(=O)c4cccc(Cl)c4o2)C3=O)C1` (centres unmarked) [Example 64, 3-(2-((2-(8-chloro-4-oxo-chromen-2-yl)-1-oxoisoindolin-5-yl)oxy)ethoxy)cyclobutanecarboxylic Acid] the value was 36.6 µM.
For `COc1cc(Br)cnc1NC(=O)c1cc(=O)c2cccc(Cl)c2o1` [Example 32, N-(5-bromo-3-methoxypyridin-2-yl)-8-chloro-4-oxo-chromene-2-carboxamide] the value was 33.7 µM; for `COc1ccc2c(c1)CCN(c1cc(=O)c3cccc(Cl)c3o1)C2=O` [Example 44, 2-(8-chloro-4-oxo-chromen-2-yl)-6-methoxy-3,4-dihydroisoquinolin-1-one], 5.44 µM.
Consider `O=C(c1cc(=O)c2cccc(Cl)c2o1)N1CCc2cccc(Cl)c2C1` [Example 28, 8-chloro-2-(8-chloro-3,4-dihydro-1H-isoquinoline-2-carbonyl)chromen-4-one], for which the IC50 was 24.3 µM.
Regarding `O=C(c1cc(=O)c2cccc(Cl)c2o1)N1CCc2cc(Br)ccc2C1` [Example 17, 2-(6-bromo-1,2,3,4-tetrahydroisoquinoline-2-carbonyl)-8-chloro-chromen-4-one], half-maximal inhibition (IC50) required 10.8 µM.
Compound `O=C(O)COCCOc1cc(Cl)ccc1NC(=O)c1cc(=O)c2cccc(Cl)c2o1` [Example 24, 2-(2-(5-chloro-2-(8-chloro-4-oxo-chromene-2-carboxamido)phenoxy)ethoxy)acetic Acid] displayed an IC50 of 13.9 µM.
With `O=C(O)C1CC(OCCOc2ccc(CNc3cc(=O)c4cccc(Cl)c4o3)cc2)C1` (centres unmarked) [Example 60, 3-(2-(4-(((8-chloro-4-oxo-chromen-2-yl)amino)methyl)phenoxy)ethoxy)cyclobutanecarboxylic Acid], half-maximal inhibition (IC50) required 30.8 µM.
The value for `COc1ccc2c(c1)C(=O)N(c1cc(=O)c3cccc(Cl)c3o1)C2` [Example 55, 2-(8-chloro-4-oxo-chromen-2-yl)-6-methoxyisoindolin-1-one] was 16.7 µM; that for `O=c1c(I)c(-n2ccc(OCc3ccccc3)cc2=O)oc2c(Cl)cccc12` [Example 46, 4-benzyloxy-1-(8-chloro-3-iodo-4-oxo-chromen-2-yl)pyridin-2-one] was 9.66 µM.
